# Assay results published in US9695155B2, “Herbicidal substituted pyrimidinyloxy benzene compounds” (E. I. DU PONT DE NEMOURS AND COMPANY, priority 2013, dated 2017).
# Key:
# [1] = test system: wheat; test: Test A preemergence; format: in vivo, Triticum aestivum
# How it was run: (§1)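 Visual injury scored 0–100 (100 = complete control) against untreated controls about 10 days after treatment in a greenhouse. Test chemicals, formulated with surfactant in non-phytotoxic solvent, were sprayed on soil preemergence or on 2-10 cm, one- to two-leaf plants postemergence.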
# [2] = test system: blackgrass; test: Test C postemergence; format: in vivo, Alopecurus myosuroides; conditions: for Blackgrass plant response rating / Plant response rating, Blackgrass: scale 0 to 100 (0 no effect, 100 complete control)
# How it was run: (§2)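 Sown in loam/sand → sprayed pre-emergence; or grown to 1–4 leaves in peat mix → sprayed post-emergence. Same solvent/surfactant formulation both ways. Greenhouse 13–15 d. Score 0–100 visual.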
# [3] = test system: pigweed; test: Test C postemergence; format: in vivo, Amaranthus retroflexus
# How it was run: as §2
# [4] = test system: giant foxtail; test: Test A preemergence; format: in vivo, Setaria faberii; conditions: for Plant response rating, Foxtail, Giant: 125 g ai/ha; for Foxtail, Giant plant response rating: 500 g ai/ha
# How it was run: as §1
# [5] = test system: velvetleaf; test: Test A preemergence; format: in vivo, Abutilon theophrasti
# How it was run: as §1
# [6] = test system: waterhemp; test: Test C postemergence; format: in vivo, Amaranthus rudis
# How it was run: as §2
# [7] = test system: morningglory; test: Test A preemergence; format: in vivo, Ipomoea spp.; conditions: for Morningglory plant response rating: 500 g ai/ha
# How it was run: as §1
# [8] = test system: oilseed rape; test: Test C postemergence; format: in vivo, Brassica napus
# How it was run: as §2
# [9] = test system: velvetleaf; test: Test C postemergence; format: in vivo, Abutilon theophrasti
# How it was run: as §2
# [10] = test system: kochia; test: Test C postemergence; format: in vivo, Kochia scoparia; conditions: for Kochia plant response rating / Plant response rating, Kochia: scale 0 to 100 (0 no effect, 100 complete control)
# How it was run: as §2
# [11] = test system: galium; test: Test C postemergence; format: in vivo, Galium aparine; conditions: for Galium plant response rating / Plant response rating, Galium: scale 0 to 100 (0 no effect, 100 complete control)
# How it was run: as §2
# [12] = test system: corn; test: Test A postemergence; format: in vivo, Zea mays; conditions: 0 to 100 scale where 0 is no effect and 100 is complete control
# How it was run: as §1
# [13] = test system: ragweed; test: Test C postemergence; format: in vivo, Ambrosia elatior
# How it was run: as §2
# [14] = test system: soybean; test: Test C postemergence; format: in vivo, Glycine max
# How it was run: as §2
# [15] = test system: morningglory; test: Test A postemergence; format: in vivo, Ipomoea spp.; conditions: 0 to 100 scale where 0 is no effect and 100 is complete control
# How it was run: as §1
# [16] = test system: johnsongrass; test: Test C postemergence; format: in vivo, Sorghum halepense; conditions: for Johnsongrass plant response rating / Plant response rating, Johnsongrass: scale 0 to 100 (0 no effect, 100 complete control)
# How it was run: as §2
# [17] = test system: wheat, winter; test: Test C postemergence; format: in vivo, Triticum aestivum
# How it was run: as §2
# [18] = test system: velvetleaf; test: Test A postemergence; format: in vivo, Abutilon theophrasti; conditions: 0 to 100 scale where 0 is no effect and 100 is complete control
# How it was run: as §1
# [19] = 500 g ai/ha, 0 to 100 scale where 0 is no effect and 100 is complete control
# [20] = 16 g ai/ha, postemergence, 0 is no effect, 100 is complete control
# [21] = 31 g ai/ha, postemergence, visual rating, 13 to 15 days
# [22] = 125 g ai/ha, postemergence, visual rating
# [23] = 31 g ai/ha, postemergence, visual rating, scale 0 to 100 (0 no effect, 100 complete control), 13 to 15 days
# [24] = 125 g ai/ha, postemergence, visual rating, scale 0 to 100 (0 no effect, 100 complete control)
# [25] = Postemergence, 62 g ai/ha, scale 0 to 100 (0 no effect, 100 complete control)
# [26] = 0 to 100 scale where 0 is no effect and 100 is complete control
# [27] = 125 g ai/ha, 0 to 100 scale where 0 is no effect and 100 is complete control
# [28] = 16 g ai/ha, postemergence, visual rating, 13 to 15 days
# [29] = Postemergence, 31 g ai/ha, 13 to 15 days
# [30] = Postemergence, 31 g ai/ha, scale 0 to 100 (0 no effect, 100 complete control), 13 to 15 days
# [31] = 0 to 100 scale, 0 no effect, 100 complete control, approx. 10 days
smiles,measurement,setting,value
Fc1cccc(Oc2ncc(Cl)cn2)c1-n1cc(Cl)cn1 [Compound 177],Wheat plant response rating (0 to 100 scale),[1]; 125 g ai/ha,0
same,Wheat plant response rating,[1]; [19],50
same,"Plant response rating (0 to 100), Blackgrass",[2]; [20],0
same,Blackgrass plant response rating,[2]; [21],5
same,"Plant response rating, Blackgrass",[2]; [22],35
same,"Plant response rating, Blackgrass","[2]; Postemergence, 62 g ai/ha",5
same,"Plant response rating (0 to 100), Pigweed",[3]; [20],75
same,Pigweed plant response rating,[3]; [23],80
same,"Plant response rating, Pigweed",[3]; [24],95
same,"Plant response rating, Pigweed",[3]; [25],85
same,"Plant response rating, Foxtail, Giant",[4]; [26],100
same,"Foxtail, Giant plant response rating",[4]; [26],100
same,Velvetleaf plant response rating (0 to 100 scale),[5]; 125 g ai/ha,80
same,Velvetleaf plant response rating,[5]; [19],100
same,"Plant response rating (0 to 100), Waterhemp",[6]; [20],70
same,Waterhemp plant response rating,[6]; [23],75
same,"Plant response rating, Waterhemp",[6]; [24],100
same,"Plant response rating, Waterhemp",[6]; [25],95
same,Morningglory plant response rating (0 to 100 scale),[7]; 125 g ai/ha,20
same,Morningglory plant response rating,[7]; [26],80
same,"Plant response rating (0 to 100), Oilseed Rape",[8]; [20],60
same,Oilseed Rape plant response rating,[8]; [23],80
same,"Plant response rating, Oilseed Rape",[8]; [24],90
same,"Plant response rating, Oilseed Rape",[8]; [25],90
same,"Plant response rating (0 to 100), Velvetleaf",[9]; [20],50
same,Velvetleaf plant response rating,[9]; [23],70
same,"Plant response rating, Velvetleaf",[9]; [24],80
same,"Plant response rating, Velvetleaf",[9]; [25],70
same,"Plant response rating (0 to 100), Kochia",[10]; [20],70
same,Kochia plant response rating,[10]; [21],70
same,"Plant response rating, Kochia",[10]; [22],95
same,"Plant response rating, Kochia","[10]; Postemergence, 62 g ai/ha",90
same,"Plant response rating (0 to 100), Galium",[11]; [20],60
same,Galium plant response rating,[11]; [21],50
same,"Plant response rating, Galium",[11]; [22],98
same,"Plant response rating, Galium","[11]; Postemergence, 62 g ai/ha",85
same,Corn plant response rating,[12]; 125 g ai/ha,40
same,"Plant response rating, Corn",[12]; 500 g ai/ha,70
same,"Plant response rating (0 to 100), Ragweed",[13]; [20],10
same,Ragweed plant response rating,[13]; [23],15
same,"Plant response rating, Ragweed",[13]; [24],60
same,"Plant response rating, Ragweed",[13]; [25],55
same,"Plant response rating (0 to 100), Soybean",[14]; [20],45
same,Soybean plant response rating,[14]; [23],65
same,"Plant response rating, Soybean",[14]; [24],95
same,"Plant response rating, Soybean",[14]; [25],85
same,Morningglory plant response rating,[15]; 125 g ai/ha,90
same,"Plant response rating, Morningglory",[15]; 500 g ai/ha,100
same,"Plant response rating (0 to 100), Johnsongrass",[16]; [20],5
same,Johnsongrass plant response rating,[16]; [21],5
same,"Plant response rating, Johnsongrass",[16]; [22],10
same,"Plant response rating, Johnsongrass","[16]; Postemergence, 62 g ai/ha",5
same,"Plant response rating (0 to 100), Wheat",[17]; [20],0
same,Wheat plant response rating,[17]; [23],0
same,"Plant response rating, Wheat",[17]; [24],5
same,"Plant response rating, Wheat",[17]; [25],0
same,Velvetleaf plant response rating,[18]; 125 g ai/ha,100
same,"Plant response rating, Velvetleaf",[18]; 500 g ai/ha,100
N#Cc1cccc(Oc2ncc(Cl)cn2)c1-n1cc(OC(F)F)cn1 [Compound 97],"Plant response rating, Wheat",[1]; [27],0
same,Blackgrass plant response rating,[2]; [28],10
same,"Plant response rating (0 to 100), Blackgrass","[2]; 125 g ai/ha, postemergence",40
same,"Plant response rating, Blackgrass",[2]; [29],5
same,"Plant response rating, Blackgrass","[2]; Postemergence, 62 g ai/ha",10
same,"Plant response rating (0 to 100), Pigweed","[3]; 125 g ai/ha, postemergence",95
same,"Plant response rating, Pigweed",[3]; [30],85
same,"Plant response rating, Pigweed",[3]; [25],85
same,"Plant response rating, Foxtail, Giant",[4]; [26],100
same,"Foxtail, Giant plant response rating",[4]; [31],100
same,"Plant response rating, Velvetleaf",[5]; [27],100
same,"Plant response rating (0 to 100), Waterhemp","[6]; 125 g ai/ha, postemergence",95
same,"Plant response rating, Waterhemp",[6]; [30],85
same,"Plant response rating, Waterhemp",[6]; [25],90
same,"Plant response rating, Morningglory",[7]; [27],100
same,Morningglory plant response rating,[7]; [31],100
same,"Plant response rating (0 to 100), Oilseed Rape","[8]; 125 g ai/ha, postemergence",80
same,"Plant response rating, Oilseed Rape",[8]; [30],60
same,"Plant response rating, Oilseed Rape",[8]; [25],80
same,"Plant response rating (0 to 100), Velvetleaf","[9]; 125 g ai/ha, postemergence",70
same,"Plant response rating, Velvetleaf",[9]; [30],40
same,"Plant response rating, Velvetleaf",[9]; [25],75
same,Kochia plant response rating,[10]; [28],80
same,"Plant response rating (0 to 100), Kochia","[10]; 125 g ai/ha, postemergence",100
same,"Plant response rating, Kochia",[10]; [29],90
same,"Plant response rating, Kochia","[10]; Postemergence, 62 g ai/ha",95
same,Galium plant response rating,[11]; [28],55
same,"Plant response rating (0 to 100), Galium","[11]; 125 g ai/ha, postemergence",90
same,"Plant response rating, Galium",[11]; [29],75
same,"Plant response rating, Galium","[11]; Postemergence, 62 g ai/ha",85
same,"Plant response rating, Corn",[12]; 125 g ai/ha,60
same,"Plant response rating, Corn",[12]; 500 g ai/ha,90
same,"Plant response rating (0 to 100), Ragweed","[13]; 125 g ai/ha, postemergence",70
same,"Plant response rating, Ragweed",[13]; [30],40
same,"Plant response rating, Ragweed",[13]; [25],60
same,"Plant response rating (0 to 100), Soybean","[14]; 125 g ai/ha, postemergence",95
same,"Plant response rating, Soybean",[14]; [30],60
same,"Plant response rating, Soybean",[14]; [25],90
same,"Plant response rating, Morningglory",[15]; 125 g ai/ha,90
same,"Plant response rating, Morningglory",[15]; 500 g ai/ha,100
same,Johnsongrass plant response rating,[16]; [28],5
same,"Plant response rating (0 to 100), Johnsongrass","[16]; 125 g ai/ha, postemergence",5
same,"Plant response rating, Johnsongrass",[16]; [29],5
same,"Plant response rating, Johnsongrass","[16]; Postemergence, 62 g ai/ha",15
same,"Plant response rating (0 to 100), Wheat","[17]; 125 g ai/ha, postemergence",10
same,"Plant response rating, Wheat",[17]; [30],5
same,"Plant response rating, Wheat",[17]; [25],5
same,"Plant response rating, Velvetleaf",[18]; 125 g ai/ha,100
same,"Plant response rating, Velvetleaf",[18]; 500 g ai/ha,100
